# Values of other authors as cited in patent US8221746B2, “Antioxidant for use in cosmetic, medicated and pharmaceutical preparations” (priority 2008, dated 2012).
# Legend:
# [1] = system: photodamage of facial skin; conditions: topical, 3 months
# photoaging of the face = conditions: topical, 12 weeks, vs placebo gel
compound,measurement,setting,value
O=C1O[C@H]([C@@H](O)CO)C(O)=C1O [vitamin C],patient questionnaire overall improvement greater than control,[1],84.2%
same,photographic assessment improvement greater than the improvement in the control group,[1],57.9%
same,"combined score improvement, optical image analysis of skin surface",[1]; compared to placebo-vehicle side of face,71%
same,clinical improvement in wrinkling (in words),photoaging of the face,clinically visible and statistically significant improvement in wrinkling
